Measured values from ChEMBL document CHEMBL1149507, “Synthesis, structure, and bioactivity of N'-substituted benzylidene-3,4,5-trimethoxybenzohydrazide and 3-acetyl-2-substituted phenyl-5-(3,4,5-trimethoxyphenyl)-2,3-dihydro-1,3,4-oxadiazole derivatives” (Bioorg Med Chem Lett, 2006).

Columns and labels:
[1] = system: PC-3; assay: Antiproliferative activity against human PC3 cell line at 5 uM by MTT assay; format: functional
[2] = system: BGC-823; assay: Antiproliferative activity against human BGC823 cell line at 1 uM by MTT assay; format: functional
[3] = system: BGC-823; assay: Antiproliferative activity against human BGC823 cell line at 5 uM by MTT assay; format: functional
[4] = system: Bcap37; assay: Antiproliferative activity against human Bcap37 cell line at 1 uM by MTT assay; format: functional
[5] = system: Bcap37; assay: Antiproliferative activity against human Bcap37 cell line at 5 uM by MTT assay; format: functional
[6] = system: PC-3; assay: Antiproliferative activity against human PC3 cell line by MTT assay; format: functional, cell-based
[7] = system: PC-3; assay: Antiproliferative activity against human PC3 cell line at 1 uM by MTT assay; format: functional

Structure (SMILES) | inhibition at 5 µM [1] | inhibition at 1 µM [2] | inhibition at 5 µM [3] | inhibition at 1 µM [4] | inhibition at 5 µM [5] | IC50 [6] | inhibition at 1 µM [7]
COc1ccc(C2OC(c3cc(OC)c(OC)c(OC)c3)=NN2C(C)=O)c(OC)c1 (configuration not stated) | 92% | 6.3% | -3.1% | -0.3% | 2.5% | 300 nM | 69.5%
COc1cc(C2=NN(C(C)=O)C(c3cccc(C(F)(F)F)c3)O2)cc(OC)c1OC (configuration not stated) | 43.6% | 27.9% | 41.1% | 10.1% | 35.5% | – | 30.1%
COc1cc(C2=NN(C(C)=O)C(c3ccccc3F)O2)cc(OC)c1OC (configuration not stated) | 31.6% | 29.6% | 32.8% | -1.5% | -2% | – | 13.5%
COc1cc(C(=O)N/N=C/c2cc(Cl)cc(Cl)c2)cc(OC)c1OC | 46.3% | -7.5% | 9.2% | -5.4% | 3.6% | – | 22.1%
COc1cc(C(=O)N/N=C/c2ccc(Cl)c([N+](=O)[O-])c2)cc(OC)c1OC | 42.3% | -5.8% | 2.3% | -4.4% | 9.6% | – | 32.1%
COc1cc(C2=NN(C(C)=O)C(c3ccc(F)cc3)O2)cc(OC)c1OC (configuration not stated) | 0.1% | -0.4% | 13.3% | -1.4% | -0.1% | – | 0%
COc1cc(/C=N/NC(=O)c2cc(OC)c(OC)c(OC)c2)cc(OC)c1OC | 48.3% | -5% | 22.9% | 11.8% | 13.6% | – | 8.5%
COc1cc(C2=NN(C(C)=O)C(c3cccc(OC)c3OC)O2)cc(OC)c1OC (configuration not stated) | 58.2% | 3.8% | 17.5% | 0.1% | 2.8% | – | 35%
COc1ccc(OC)c(/C=N/NC(=O)c2cc(OC)c(OC)c(OC)c2)c1 | 51.7% | 0.1% | 10.1% | 0% | 0% | – | 30.9%
COc1ccc(/C=N/NC(=O)c2cc(OC)c(OC)c(OC)c2)c(OC)c1 | 22.2% | -6.9% | 3.6% | -3% | -0.1% | – | 10%
COc1cc(C2=NN(C(C)=O)C(c3cc(OC)c(OC)c(OC)c3)O2)cc(OC)c1OC (configuration not stated) | 0.1% | -1.8% | -1.4% | 5.1% | 5.4% | – | -1.8%
COc1cc(C2=NN(C(C)=O)C(c3ccc(C(F)(F)F)cc3)O2)cc(OC)c1OC (configuration not stated) | -0.7% | 4.2% | 3.4% | -3.5% | 14.2% | – | -11%
COc1cc(C2=NN(C(C)=O)C(c3ccc(Cl)c([N+](=O)[O-])c3)O2)cc(OC)c1OC (configuration not stated) | 61.4% | -2.3% | 0% | -2.9% | 1% | – | 43.3%
COc1cc(C(=O)N/N=C/c2ccc(Cl)c(Cl)c2)cc(OC)c1OC | 31.6% | 29.6% | 32.7% | 0.1% | 0.6% | – | 13.5%
COc1cc(C(=O)N/N=C/c2ccc(F)cc2)cc(OC)c1OC | 82.8% | 50.9% | 61.1% | 50.2% | 55.5% | – | 76%
COc1cc(C(=O)N/N=C/c2ccccc2F)cc(OC)c1OC | 81.8% | 51.6% | 76.5% | 58.9% | 81.8% | – | 70.6%
COc1cc(C(=O)N/N=C/c2cccc(C(F)(F)F)c2)cc(OC)c1OC | 79.8% | 17.7% | 33.8% | 8.3% | 15.5% | – | 51%
COc1cc(C2=NN(C(C)=O)C(c3c(Cl)cccc3Cl)O2)cc(OC)c1OC (configuration not stated) | -2.2% | -1.4% | 15.9% | 9.3% | 45.8% | – | 5.1%
COc1cc(C(=O)N/N=C/c2ccc(F)c(F)c2)cc(OC)c1OC | 43.7% | 33.1% | 51.9% | 58.5% | 68.2% | – | 35.1%
COc1cc(C2=NN(C(C)=O)C(c3ccccc3C(F)(F)F)O2)cc(OC)c1OC (configuration not stated) | 15.2% | 31.8% | 34.8% | -1.2% | 16.2% | – | -11%
COc1cc(C2=NN(C(C)=O)C(c3ccc(Cl)c(Cl)c3)O2)cc(OC)c1OC (configuration not stated) | 26.1% | -0.8% | 3.1% | -3.2% | 0% | – | 28.1%
COc1cccc(/C=N/NC(=O)c2cc(OC)c(OC)c(OC)c2)c1OC | 67% | -0.1% | 14.2% | -2.3% | 12.3% | – | 53.2%
COc1cc(C2=NN(C(C)=O)C(c3ccc(F)c(F)c3)O2)cc(OC)c1OC (configuration not stated) | 46.9% | 18.3% | 21.6% | -1.3% | 2.3% | – | 35.5%
COc1cc(C(=O)N/N=C/c2ccc(C(F)(F)F)cc2)cc(OC)c1OC | 61.6% | 47.4% | 56.3% | 61.8% | 65.6% | – | 59.9%
COc1cc(C(=O)N/N=C/c2ccccc2C(F)(F)F)cc(OC)c1OC | 52.9% | 22.1% | 35.6% | 56.8% | 80% | – | 45%
COc1cc(C(=O)N/N=C/c2cccc(F)c2)cc(OC)c1OC | 64.1% | 13.6% | 44.8% | 38% | 49% | – | 53.5%
COc1cc(C(=O)N/N=C/c2c(Cl)cccc2Cl)cc(OC)c1OC | 52.1% | 0.9% | 27.8% | -7.2% | 2.9% | – | 43%
COc1cc(C2=NN(C(C)=O)C(c3cc(Cl)cc(Cl)c3)O2)cc(OC)c1OC (configuration not stated) | 93.9% | 0% | 6.6% | -1.1% | 1.3% | 1700 nM | 52.7%
COc1ccc(OC)c(C2OC(c3cc(OC)c(OC)c(OC)c3)=NN2C(C)=O)c1 (configuration not stated) | 43.2% | 0.4% | 18.2% | -3.8% | 2.3% | – | 37.2%
COc1cc(C2=NN(C(C)=O)C(c3cccc(F)c3)O2)cc(OC)c1OC (configuration not stated) | 43.5% | 14.7% | 37.7% | 14% | 23.8% | – | 16.5%
